Measurements as given in paper PMC6311682, “Design, Synthesis, and Biological Evaluation of 2-Nitroimidazopyrazin-one/-es with Antitubercular and Antiparasitic Activity” (Journal of Medicinal Chemistry, 2018).
In brackets after ≈: the same amount, converted by molar mass. Read-outs that look alike come from different tables or passages of the source.

Tests used:
[1] = Mammalian cytotoxicity assay (resazurin), HEK293; settings: human, HEK293 cells
[2] = Mammalian cytotoxicity assay (resazurin), HepG2; settings: human, HepG2 cells
[3] = system: E. histolytica (HM1:IMSS); assay: ATP-bioluminescence cell growth and survival assay, E. histolytica trophozoites; format: cell-based; settings: Entamoeba histolytica
[4] = system: C. difficile (630, ATCC BAA-1382); assay: Broth microdilution MIC assay, C. difficile; format: cell-based, Clostridium difficile; settings: 630 ATCC BAA-1382, median MIC; for MIC: Clostridioides difficile, ATCCBAA1382, read-out: antibacterial MIC C. difficile
[5] = system: L. donovani MHOM/IN/80/DD8 (ATCC50212); assay: L. donovani DD8 intracellular (THP-1) amastigote assay; format: cell-based; settings: Leishmania donovani
[6] = Kinetic solubility determination by LC-UV; settings: room temperature, 1% DMSO
[7] = system: ESKAPE pathogens S. aureus (ATCC 43300), E. coli (ATCC 25922), K. pneumoniae (ATCC 700603), A. baumannii (ATCC 19606), P. aeruginosa (ATCC 27853); assay: Broth microdilution MIC assay, ESKAPE pathogens; format: cell-based
[8] = Broth microdilution MIC assay, ESKAPE pathogens; format: cell-based; settings: S. aureus, E. coli, K. pneumoniae, A. baumannii, P. aeruginosa; read-out: antibacterial MIC ESKAPE
[9] = system: C. albicans (ATCC 90028) and C. neoformans (H99, ATCC 208821); assay: Broth microdilution MIC assay, fungi; format: cell-based; settings: for MIC: Candida albicans, read-out: antifungal MIC
[10] = read-out: antiparasitic IC50 E. histolytica
[11] = read-out: antiparasitic pIC50 ± SE E. histolytica (converted)
[12] = read-out: antiparasitic IC50 L. donovani
[13] = read-out: antiparasitic pIC50 ± SE L. donovani (converted)
[14] = PBS, pH 7.4, Solubility µM (PBS), PBS pH 7.4, 24 h
[15] = water, Solubility µM (H2O), 24 h

## O=C(NCc1ccccc1)c1nc([N+](=O)[O-])c[nH]1 [16b, N-Benzyl-5-nitro-1H-imidazole-2-carboxamide]
[1]
  CC50 at 24 h: > 100 µM
[2]
  CC50 at 24 h: > 100 µM

## Cc1ccc(CNC(=O)c2nc([N+](=O)[O-])c[nH]2)cc1 [16d, N-(4-Methylbenzyl)-5-nitro-1H-imidazole-2-carboxamide]
[1]
  CC50 at 24 h: > 100 µM
[2]
  CC50 at 24 h: > 100 µM

## O=c1[nH]ccn2cc([N+](=O)[O-])nc12 [17a, 2-Nitroimidazo[1,2-a]pyrazin-8(7H)-one]
[3]; [10]
  IC50: > 25 µM
[3]; [11]
  IC50: > 25.1 µM
[4]
  antibacterial MIC C. difficile: >64 µg/mL
  MIC: > 64 µg/mL
[5]; [12]
  IC50: > 80 µM
[5]; [13]
  IC50: > 79.4 µM
[6]; [14]
  solubility at 24 h: > 200 µM
[6]; [15]
  solubility at 24 h: > 200 µM
[7]
  antibacterial MIC ESKAPE: >32 µg/mL
[8]
  MIC: > 32 µg/mL

## Cc1ccc(Cn2ccn3cc([N+](=O)[O-])nc3c2=O)cc1 [17d, 7-(4-Methylbenzyl)-2-nitroimidazo[1,2-a]pyrazin-8(7H)-one]
[5]; [12]
  IC50: > 80 µM
[5]; [13]
  IC50: > 79.4 µM
[6]; [14]
  solubility at 24 h: < 5 µM
[6]; [15]
  solubility at 24 h: < 5 µM
[7]
  antibacterial MIC ESKAPE: >32 µg/mL
[8]
  MIC: > 32 µg/mL

## O=c1c2nc([N+](=O)[O-])cn2ccn1Cc1ccccc1OC(F)(F)F [17i, 2-Nitro-7-(2-(trifluoromethoxy)benzyl)imidazo[1,2-a]pyrazin-8(7H)-one]
[3]; [10]
  IC50: > 50 µM
[3]; [11]
  IC50: > 50.1 µM
[5]; [12]
  IC50: > 40 µM
[5]; [13]
  IC50: > 39.8 µM
[6]; [14]
  solubility at 24 h: < 5 µM
[6]; [15]
  solubility at 24 h: < 5 µM
[7]
  antibacterial MIC ESKAPE: >32 µg/mL
[8]
  MIC: > 32 µg/mL

## O=c1c2nc([N+](=O)[O-])cn2ccn1Cc1ccc(F)cc1F [17j, 7-(2,4-Difluorobenzyl)-2-nitroimidazo[1,2-a]pyrazin-8(7H)-one]
[3]; [10]
  IC50: > 50 µM
[3]; [11]
  IC50: > 50.1 µM
[5]; [12]
  IC50: > 40 µM
[5]; [13]
  IC50: > 39.8 µM
[6]; [14]
  solubility at 24 h: < 5 µM
[6]; [15]
  solubility at 24 h: < 5 µM
[7]
  antibacterial MIC ESKAPE: >32 µg/mL
[8]
  MIC: > 32 µg/mL

## O=c1c2nc([N+](=O)[O-])cn2ccn1Cc1ccccn1 [17k, 2-Nitro-7-(pyridin-2-ylmethyl)imidazo[1,2-a]pyrazin-8(7H)-one, 1TFA]
[3]; [10]
  IC50: > 50 µM
[3]; [11]
  IC50: > 50.1 µM
[4]
  antibacterial MIC C. difficile: >64 µg/mL
  MIC: > 64 µg/mL
[5]; [12]
  IC50: > 80 µM
[5]; [13]
  IC50: > 79.4 µM
[7]
  antibacterial MIC ESKAPE: >32 µg/mL
[8]
  MIC: > 32 µg/mL

## CC(c1ccc(F)cc1)n1ccn2cc([N+](=O)[O-])nc2c1=O (stereo not shown) [17l, 7-(1-(4-Fluorophenyl)ethyl)-2-nitroimidazo[1,2-a]pyrazin-8(7H)-one]
[3]; [10]
  IC50: > 50 µM
[3]; [11]
  IC50: > 50.1 µM
[4]
  antibacterial MIC C. difficile: >64 µg/mL
  MIC: > 64 µg/mL
[5]; [12]
  IC50: > 80 µM
[5]; [13]
  IC50: > 79.4 µM
[6]; [14]
  solubility at 24 h: < 10 µM
[6]; [15]
  solubility at 24 h: < 10 µM
[7]
  antibacterial MIC ESKAPE: >32 µg/mL
[8]
  MIC: > 32 µg/mL

## CC(=O)OCCn1ccn2cc([N+](=O)[O-])nc2c1=O [17o, 2-(2-Nitro-8-oxoimidazo[1,2-a]pyrazin-7(8H)-yl)ethyl Acetate]
[3]; [10]
  IC50: > 50 µM
[3]; [11]
  IC50: > 50.1 µM
[4]
  antibacterial MIC C. difficile: >64 µg/mL
  MIC: > 64 µg/mL
[5]; [12]
  IC50: > 80 µM
[5]; [13]
  IC50: > 79.4 µM
[7]
  antibacterial MIC ESKAPE: >32 µg/mL
[8]
  MIC: > 32 µg/mL

## O=c1c2nc([N+](=O)[O-])cn2ccn1CCO [17p, 7-(2-Hydroxyethyl)-2-nitroimidazo[1,2-a]pyrazin-8(7H)-one]
[3]; [10]
  IC50: > 50 µM
[3]; [11]
  IC50: > 50.1 µM
[4]
  antibacterial MIC C. difficile: >64 µg/mL
  MIC: > 64 µg/mL
[5]; [12]
  IC50: > 80 µM
[5]; [13]
  IC50: > 79.4 µM
[6]; [14]
  solubility at 24 h: > 200 µM
[6]; [15]
  solubility at 24 h: > 200 µM
[7]
  antibacterial MIC ESKAPE: >32 µg/mL
[8]
  MIC: > 32 µg/mL

## O=c1c2nc([N+](=O)[O-])cn2ccn1CCN1CCOCC1 [17q, 4-(2-(2-Nitro-8-oxoimidazo[1,2-a]pyrazin-7(8H)-yl)ethyl)morpholin-4-ium 2,2,2-Trifluoroacetate]
[3]; [10]
  IC50: > 50 µM
[4]
  antibacterial MIC C. difficile: >64 µg/mL
  MIC: > 64 µg/mL
[5]; [12]
  IC50: > 80 µM
[5]; [13]
  IC50: > 79.4 µM
[7]
  antibacterial MIC ESKAPE: >32 µg/mL
[8]
  MIC: > 32 µg/mL

## O=C(Cn1ccn2cc([N+](=O)[O-])nc2c1=O)N1CCOCC1 [17r, 7-(2-Morpholino-2-oxoethyl)-2-nitroimidazo[1,2-a]pyrazin-8(7H)-one]
[3]; [10]
  IC50: > 50 µM
[3]; [11]
  IC50: > 50.1 µM
[4]
  antibacterial MIC C. difficile: >64 µg/mL
  MIC: > 64 µg/mL
[5]; [12]
  IC50: > 80 µM
[5]; [13]
  IC50: > 79.4 µM
[6]; [14]
  solubility at 24 h: 194 ± 0.526 µM (≈ 59.6 µg/mL)
[6]; [15]
  solubility at 24 h: 192 ± 1.51 µM (≈ 59 µg/mL)
[7]
  antibacterial MIC ESKAPE: >32 µg/mL
[8]
  MIC: > 32 µg/mL

## NC(=O)Cn1ccn2cc([N+](=O)[O-])nc2c1=O [17s, 2-(2-Nitro-8-oxoimidazo[1,2-a]pyrazin-7(8H)-yl)acetamide]
[3]; [10]
  IC50: > 50 µM
[3]; [11]
  IC50: > 50.1 µM
[4]
  antibacterial MIC C. difficile: >64 µg/mL
  MIC: > 64 µg/mL
[5]; [12]
  IC50: > 80 µM
[5]; [13]
  IC50: > 79.4 µM
[6]; [14]
  solubility at 24 h: > 200 µM
[6]; [15]
  solubility at 24 h: > 200 µM
[7]
  antibacterial MIC ESKAPE: >32 µg/mL
[8]
  MIC: > 32 µg/mL

## O=[N+]([O-])c1cn2ccnc(OCc3ccccc3OC(F)(F)F)c2n1 [18i, 2-Nitro-8-((2-(trifluoromethoxy)benzyl)oxy)imidazo[1,2-a]pyrazine]
[3]; [10]
  IC50: > 50 µM
[3]; [11]
  IC50: > 50.1 µM
[6]; [14]
  solubility at 24 h: < 5 µM
[6]; [15]
  solubility at 24 h: < 5 µM
[7]
  antibacterial MIC ESKAPE: >32 µg/mL
[8]
  MIC: > 32 µg/mL

## O=[N+]([O-])c1cn2ccnc(OCCc3ccc(OC(F)(F)F)cc3)c2n1 [18m, 2-Nitro-8-(4-(trifluoromethoxy)phenethoxy)imidazo[1,2-a]pyrazine]
[4]
  MIC: 64 µg/mL (≈ 174 µM)
[7]
  antibacterial MIC ESKAPE: >32 µg/mL
[8]
  MIC: > 32 µg/mL

## O=c1c2nc([N+](=O)[O-])cn2cc(-c2ccccc2)n1CCO [24d, 7-(2-Hydroxyethyl)-2-nitro-6-phenylimidazo[1,2-a]pyrazin-8(7H)-one]
[4]
  antibacterial MIC C. difficile: >64 µg/mL
  MIC: > 64 µg/mL
[9]
  antifungal MIC: >32 µg/mL
  MIC: > 32 µg/mL
[6]; [14]
  solubility at 24 h: 164 ± 21 µM (≈ 49.2 µg/mL)
[6]; [15]
  solubility at 24 h: 163 ± 15 µM (≈ 48.9 µg/mL)
[7]
  antibacterial MIC ESKAPE: >32 µg/mL
[8]
  MIC: > 32 µg/mL

## Cc1cn2cc([N+](=O)[O-])nc2c(OCc2cccc(OC(F)(F)F)c2)n1 [25k]
[9]
  MIC: > 32 µg/mL
[5]; [12]
  IC50: > 40 µM
[5]; [13]
  IC50: > 39.8 µM
[1]
  CC50 at 24 h: > 100 µM
[8]
  MIC: > 32 µg/mL
[2]
  CC50 at 24 h: > 100 µM

## Cc1c(C)n2cc([N+](=O)[O-])nc2c(=O)n1Cc1cccc(OC(F)(F)F)c1 [26f, 5,6-Dimethyl-2-nitro-7-(3-(trifluoromethoxy)benzyl)imidazo[1,2-a]pyrazin-8(7H)-one]
[9]
  antifungal MIC: >32 µg/mL
  MIC: > 32 µg/mL
[6]; [14]
  solubility at 24 h: 15.7 ± 0.404 µM (≈ 6 µg/mL)
[6]; [15]
  solubility at 24 h: 15.9 ± 1.55 µM (≈ 6.08 µg/mL)
[7]
  antibacterial MIC ESKAPE: >32 µg/mL
[8]
  MIC: > 32 µg/mL
[2]
  CC50 at 24 h: 25.6 to 80 µM

## NC(=O)c1nc([N+](=O)[O-])cn1Cc1ccccc1 [28b]
[1]
  CC50 at 24 h: > 100 µM
[2]
  CC50 at 24 h: > 100 µM

## Cc1ccc(Cn2cc([N+](=O)[O-])nc2C(N)=O)cc1 [28d]
[1]
  CC50 at 24 h: > 100 µM
[2]
  CC50 at 24 h: > 100 µM
